Laboratory results: PubChem BioAssay (NCI)
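Protocol summary: plate cells (96-well), add compound at 5 concentrations, incubate 48 h, interpolate endpoints linearly. GI50 is the concentration that inhibits growth by half. TGI: total growth inhibition.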

Columns and labels:
Test in all cases: NCI tumour cell line growth inhibition, 48 h
SN12C renal = tested on: SN12C renal
HL-60(TB) leukemia = tested on: HL-60(TB) leukemia
NCI-H226 lung = tested on: NCI-H226 lung
HCC-2998 colon = tested on: HCC-2998 colon
786-0 renal = tested on: 786-0 renal
NCI-H460 lung = tested on: NCI-H460 lung
SK-MEL-28 melanoma = tested on: SK-MEL-28 melanoma
SNB-19 CNS = tested on: SNB-19 CNS
MCF7 breast = tested on: MCF7 breast
DU-145 prostate = tested on: DU-145 prostate
RPMI-8226 leukemia = tested on: RPMI-8226 leukemia
MDA-MB-231 breast = tested on: MDA-MB-231 breast
SK-MEL-5 melanoma = tested on: SK-MEL-5 melanoma
NCI-H23 lung = tested on: NCI-H23 lung
SK-MEL-2 melanoma = tested on: SK-MEL-2 melanoma
MDA-MB-435 = tested on: MDA-MB-435
OVCAR-4 ovarian = tested on: OVCAR-4 ovarian
NCI/ADR-RES ovarian = tested on: NCI/ADR-RES ovarian
CAKI-1 renal = tested on: CAKI-1 renal
RXF 393 renal = tested on: RXF 393 renal
LOX IMVI melanoma = tested on: LOX IMVI melanoma
CCRF-CEM leukemia = tested on: CCRF-CEM leukemia
UO-31 renal = tested on: UO-31 renal
OVCAR-5 ovarian = tested on: OVCAR-5 ovarian
A498 renal = tested on: A498 renal
U251 CNS = tested on: U251 CNS
MDA-N = tested on: MDA-N
SF-539 CNS = tested on: SF-539 CNS
TK-10 renal = tested on: TK-10 renal
K-562 leukemia = tested on: K-562 leukemia
KM12 colon = tested on: KM12 colon
HCT-15 colon = tested on: HCT-15 colon
M14 melanoma = tested on: M14 melanoma
MOLT-4 leukemia = tested on: MOLT-4 leukemia
OVCAR-8 ovarian = tested on: OVCAR-8 ovarian
SF-268 CNS = tested on: SF-268 CNS
SF-295 CNS = tested on: SF-295 CNS
HOP-92 NSCLC = tested on: HOP-92 NSCLC
SK-OV-3 ovarian = tested on: SK-OV-3 ovarian
UACC-62 melanoma = tested on: UACC-62 melanoma
ACHN renal = tested on: ACHN renal
HT29 colon = tested on: HT29 colon
A549 NSCLC = tested on: A549 NSCLC
PC-3 prostate = tested on: PC-3 prostate
COLO 205 colon = tested on: COLO 205 colon
SR leukemia = tested on: SR leukemia
SW-620 colon = tested on: SW-620 colon
HCT-116 colon = tested on: HCT-116 colon
UACC-257 melanoma = tested on: UACC-257 melanoma
IGROV1 ovarian = tested on: IGROV1 ovarian
BT-549 breast = tested on: BT-549 breast
HOP-62 NSCLC = tested on: HOP-62 NSCLC
HS 578T breast = tested on: HS 578T breast
NCI-H522 lung = tested on: NCI-H522 lung
SNB-75 CNS = tested on: SNB-75 CNS
T-47D breast = tested on: T-47D breast
MALME-3M melanoma = tested on: MALME-3M melanoma
EKVX NSCLC = tested on: EKVX NSCLC
OVCAR-3 ovarian = tested on: OVCAR-3 ovarian

## c1cc2nnnn2nc1N1CCCC1
SN12C renal
  TGI: > 100 µM
HL-60(TB) leukemia
  TGI: > 100 µM
NCI-H226 lung
  TGI: > 100 µM
HCC-2998 colon
  TGI: > 100 µM
786-0 renal
  TGI: > 100 µM
NCI-H460 lung
  TGI: > 100 µM
SK-MEL-28 melanoma
  TGI: > 100 µM
SNB-19 CNS
  TGI: > 100 µM
MCF7 breast
  TGI: > 100 µM
DU-145 prostate
  TGI: > 100 µM
RPMI-8226 leukemia
  TGI: > 100 µM
MDA-MB-231 breast
  TGI: > 100 µM
SK-MEL-5 melanoma
  TGI: > 100 µM
NCI-H23 lung
  TGI: > 100 µM
SK-MEL-2 melanoma
  TGI: > 100 µM
MDA-MB-435
  TGI: > 100 µM
OVCAR-4 ovarian
  TGI: > 100 µM
NCI/ADR-RES ovarian
  TGI: > 100 µM
CAKI-1 renal
  TGI: > 100 µM
RXF 393 renal
  TGI: > 100 µM
LOX IMVI melanoma
  TGI: > 100 µM
CCRF-CEM leukemia
  TGI: > 100 µM
UO-31 renal
  TGI: > 100 µM
OVCAR-5 ovarian
  TGI: > 100 µM
A498 renal
  TGI: > 100 µM
U251 CNS
  TGI: > 100 µM
MDA-N
  TGI: > 100 µM
SF-539 CNS
  TGI: > 100 µM
TK-10 renal
  TGI: > 100 µM
K-562 leukemia
  TGI: > 100 µM
KM12 colon
  TGI: > 100 µM
HCT-15 colon
  TGI: > 100 µM
M14 melanoma
  TGI: > 100 µM
MOLT-4 leukemia
  TGI: > 100 µM
OVCAR-8 ovarian
  TGI: > 100 µM
SF-268 CNS
  TGI: > 100 µM
SF-295 CNS
  TGI: > 100 µM
HOP-92 NSCLC
  TGI: > 100 µM
SK-OV-3 ovarian
  TGI: > 100 µM
UACC-62 melanoma
  TGI: > 100 µM
ACHN renal
  TGI: > 100 µM
HT29 colon
  TGI: > 100 µM
A549 NSCLC
  TGI: > 100 µM
PC-3 prostate
  TGI: > 100 µM
COLO 205 colon
  TGI: > 100 µM
SR leukemia
  TGI: > 100 µM
SW-620 colon
  TGI: > 100 µM
HCT-116 colon
  TGI: > 100 µM
UACC-257 melanoma
  TGI: > 100 µM

## COc1cc2ncn(-c3cc(OCCc4ccccc4)c(C(N)=O)s3)c2cc1OC
SN12C renal
  GI50: 24.9 µM
  TGI: > 25 µM
IGROV1 ovarian
  GI50: > 25 µM
  TGI: > 25 µM
HL-60(TB) leukemia
  GI50: > 20.2 µM
  TGI: > 25 µM
NCI-H226 lung
  GI50: > 25 µM
  TGI: > 25 µM
BT-549 breast
  GI50: > 25 µM
  TGI: > 25 µM
HCC-2998 colon
  GI50: > 25 µM
  TGI: > 25 µM
786-0 renal
  GI50: > 25 µM
  TGI: > 25 µM
NCI-H460 lung
  GI50: > 25 µM
  TGI: > 25 µM
SK-MEL-28 melanoma
  GI50: > 25 µM
  TGI: > 25 µM
HOP-62 NSCLC
  GI50: > 25 µM
  TGI: > 25 µM
SNB-19 CNS
  GI50: > 25 µM
  TGI: > 25 µM
MCF7 breast
  GI50: 10.1 µM
  TGI: > 25 µM
DU-145 prostate
  GI50: > 23.2 µM
  TGI: > 25 µM
RPMI-8226 leukemia
  GI50: > 25 µM
  TGI: > 25 µM
MDA-MB-231 breast
  GI50: 24.6 µM
  TGI: > 25 µM
SK-MEL-5 melanoma
  GI50: 11.3 µM
  TGI: > 25 µM
NCI-H23 lung
  GI50: > 25 µM
  TGI: > 25 µM
SK-MEL-2 melanoma
  GI50: > 25 µM
  TGI: > 25 µM
MDA-MB-435
  GI50: 9.55 µM
  TGI: > 25 µM
OVCAR-4 ovarian
  GI50: > 25 µM
  TGI: > 25 µM
NCI/ADR-RES ovarian
  GI50: 14.8 µM
  TGI: > 25 µM
CAKI-1 renal
  GI50: > 25 µM
  TGI: > 25 µM
RXF 393 renal
  GI50: 9.53 µM
  TGI: > 25 µM
LOX IMVI melanoma
  GI50: > 25 µM
  TGI: > 25 µM
CCRF-CEM leukemia
  GI50: 8.5 µM
  TGI: > 25 µM
UO-31 renal
  GI50: 8.16 µM
  TGI: > 25 µM
HS 578T breast
  GI50: > 16.1 µM
  TGI: > 25 µM
OVCAR-5 ovarian
  GI50: > 25 µM
  TGI: > 25 µM
A498 renal
  GI50: 2.43 µM
  TGI: > 22.3 µM
U251 CNS
  GI50: > 25 µM
  TGI: > 25 µM
NCI-H522 lung
  GI50: > 18.1 µM
  TGI: > 25 µM
SF-539 CNS
  GI50: > 25 µM
  TGI: > 25 µM
TK-10 renal
  GI50: > 17.2 µM
  TGI: > 25 µM
SNB-75 CNS
  GI50: > 25 µM
  TGI: > 25 µM
K-562 leukemia
  GI50: > 25 µM
  TGI: > 25 µM
KM12 colon
  GI50: 18.9 µM
  TGI: > 25 µM
HCT-15 colon
  GI50: > 25 µM
  TGI: > 25 µM
T-47D breast
  GI50: > 25 µM
  TGI: > 25 µM
M14 melanoma
  GI50: > 25 µM
  TGI: > 25 µM
MALME-3M melanoma
  GI50: > 25 µM
  TGI: > 25 µM
MOLT-4 leukemia
  GI50: 12.4 µM
  TGI: > 25 µM
OVCAR-8 ovarian
  GI50: > 25 µM
  TGI: > 25 µM
SF-268 CNS
  GI50: > 25 µM
  TGI: > 25 µM
SF-295 CNS
  GI50: > 25 µM
  TGI: > 25 µM
EKVX NSCLC
  GI50: > 25 µM
  TGI: > 25 µM
HOP-92 NSCLC
  GI50: 19.6 µM
  TGI: > 25 µM
SK-OV-3 ovarian
  GI50: > 25 µM
  TGI: > 25 µM
UACC-62 melanoma
  GI50: > 25 µM
  TGI: > 25 µM
ACHN renal
  GI50: > 25 µM
  TGI: > 25 µM
HT29 colon
  GI50: 13.6 µM
  TGI: > 25 µM
A549 NSCLC
  GI50: > 25 µM
  TGI: > 25 µM
PC-3 prostate
  GI50: > 25 µM
  TGI: > 25 µM
COLO 205 colon
  GI50: 24.4 µM
  TGI: > 25 µM
SR leukemia
  GI50: 13.6 µM
  TGI: > 25 µM
SW-620 colon
  GI50: > 25 µM
  TGI: > 25 µM
OVCAR-3 ovarian
  GI50: > 25 µM
  TGI: > 25 µM
HCT-116 colon
  GI50: 24.6 µM
  TGI: > 25 µM
UACC-257 melanoma
  GI50: > 25 µM
  TGI: > 25 µM

## CCc1ccc2oc(-c3cc(O)c(-c4nc5cc(CC)ccc5o4)cc3O)nc2c1
SN12C renal
  TGI: > 100 µM
IGROV1 ovarian
  TGI: > 100 µM
HL-60(TB) leukemia
  TGI: > 100 µM
NCI-H226 lung
  TGI: > 100 µM
HCC-2998 colon
  TGI: > 100 µM
786-0 renal
  TGI: > 100 µM
NCI-H460 lung
  TGI: > 100 µM
SK-MEL-28 melanoma
  TGI: > 100 µM
HOP-62 NSCLC
  TGI: > 100 µM
SNB-19 CNS
  TGI: > 100 µM
MCF7 breast
  TGI: > 100 µM
DU-145 prostate
  TGI: > 100 µM
RPMI-8226 leukemia
  TGI: > 100 µM
MDA-MB-231 breast
  TGI: > 100 µM
SK-MEL-5 melanoma
  TGI: > 100 µM
NCI-H23 lung
  TGI: > 100 µM
SK-MEL-2 melanoma
  TGI: > 100 µM
MDA-MB-435
  TGI: > 100 µM
NCI/ADR-RES ovarian
  TGI: > 100 µM
LOX IMVI melanoma
  TGI: > 100 µM
CCRF-CEM leukemia
  TGI: > 100 µM
UO-31 renal
  TGI: > 100 µM
HS 578T breast
  TGI: > 100 µM
OVCAR-5 ovarian
  TGI: > 100 µM
A498 renal
  TGI: > 100 µM
U251 CNS
  TGI: > 100 µM
MDA-N
  TGI: > 100 µM
SF-539 CNS
  TGI: > 100 µM
TK-10 renal
  TGI: > 100 µM
SNB-75 CNS
  TGI: > 100 µM
K-562 leukemia
  TGI: > 100 µM
HCT-15 colon
  TGI: > 100 µM
T-47D breast
  TGI: > 100 µM
M14 melanoma
  TGI: > 100 µM
MOLT-4 leukemia
  TGI: > 100 µM
OVCAR-8 ovarian
  TGI: > 100 µM
SF-268 CNS
  TGI: > 100 µM
EKVX NSCLC
  TGI: > 100 µM
HOP-92 NSCLC
  TGI: > 100 µM
SK-OV-3 ovarian
  TGI: > 100 µM
UACC-62 melanoma
  TGI: > 100 µM
ACHN renal
  TGI: > 100 µM
A549 NSCLC
  TGI: > 100 µM
PC-3 prostate
  TGI: > 100 µM
COLO 205 colon
  TGI: > 100 µM
SR leukemia
  TGI: > 100 µM
SW-620 colon
  TGI: > 100 µM
HCT-116 colon
  TGI: > 100 µM
